Experimental data taken from PMC11385767 (Heliyon, 2024).
“Also recorded” adds a separate entry of the source. No end group written: not given here.

Legend:
HLA-A*02:01 = HLA-A*02:01 (Homo sapiens, UniProt P04439, D140Y/D185E/D98H/E176V/E277Q/G131W/G231S/I119V/I121R/I166T/I218V/L300P/L318F/N151K/N90K/P208A/P217A/Q86G/Q94H/R138H/R169H/T345S); details: ref [20]; cited from earlier work
[1] = target: HLA-A*11:01 on TAP-deficient T2 cell line (Homo sapiens, UniProt P04439, A114D/D185E/E176A/F33Y/L180Q/S129P/T187R); type: cell-based

Row | Sequence | binding to HLA-A*02:01 (in words) (HLA-A*02:01) | binding ability on T2 cell line (in words, rank) [1]
1 | FVGEFFTDV | positive binding | –
2 | KLIMTQVSK [KLIMTQVSK] | – | VITTDHLK ≈ STIHSIQY > KLIMTQVSK > TTDHLKFSK; also recorded: moderate binding affinity
3 | STIHDSIQY [STIHDSIQY] | – | no significant difference in IC50 value; also recorded: excellent binding affinity
4 | TTDHLKFSK [TTDHLKFSK] | – | VITTDHLK ≈ STIHSIQY > KLIMTQVSK > TTDHLKFSK; also recorded: lowest binding affinity
5 | VINTTDHLK [VINTTDHLK] | – | VITTDHLK ≈ STIHSIQY > KLIMTQVSK > TTDHLKFSK; also recorded: excellent binding affinity
